Data published in ChEMBL document CHEMBL5604065, “ASAP - DENV-3 NS2B-NS3 protease fluorescence dose response” (2024).
“And” between values parts separate entries of the source, which are not always exact repeats. Equal entries are not always repeated.

Target: T1, NS3 protease (dengue virus type 3, UniProt A0A0B5JFF1)
T1 sequence (A0A0B5JFF1 whole entry): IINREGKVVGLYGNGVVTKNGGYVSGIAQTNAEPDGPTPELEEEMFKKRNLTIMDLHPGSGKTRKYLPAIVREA
Test: Functional biochemical assay to identify treatments for viral infectious disease that targets Dengue virus type 3 NS2B-NS3 protease. Utilizing a direct enzyme activity measurement method, reading the fluorescence intensity is used to characterize the relative potency of inhibitors as IC50.
Design: species or system Philippines/H87/1956

SMILES	IC50
CC(C)NC(=O)[C@H](Nc1ccc2c(c1)CNC2)c1cc(Cl)cc2[nH]ncc12	26.2 µM
O=C(Nc1ccc2c(c1)CNC2)c1cc(Br)cc2[nH]c(-c3ccccc3)nc12	1.47 µM
NCCc1csc2cc(C(=O)Nc3cc([C@H]4CCOC4)ccn3)ccc12	> 99.5 µM
O=C(Nc1ccc2c(c1)CNC2)c1cccc2[nH]c(C(F)(F)F)cc12	31.8 µM
N#Cc1cccc(-c2nc3c(C(=O)Nc4ccc5c(c4)CNC5)cc(F)cc3[nH]2)c1	2.31 µM
O=C(Nc1ccc2c(c1)CNC2)c1ccc2[nH]cc(C3CCNCC3)c2c1	29.2 µM
N#Cc1ccc(-c2nc3c(C(=O)Nc4ccc5c(c4)CNC5)cc(F)cc3[nH]2)cc1	1.7 µM
COc1cccc(-c2nc3c(C(=O)Nc4ccc5c(c4)CNC5)cc(F)cc3[nH]2)c1	3.72 µM
CC(C)c1nnc(-c2nc3c(C(=O)Nc4ccc5c(c4)CNC5)cc(F)cc3[nH]2)s1	10.8 µM
C=CC[C@H]1NCc2cc(NC(=O)c3cc(Cl)cc4[nH]ncc34)ccc21	68.2 µM
NCc1cccc(-c2csc3cc(C(=O)Nc4ccc5c(c4)CNC5)ccc23)c1	29.8 µM
O=C(Nc1ccc2c(c1)CNC2)c1cc(F)cc2[nH]c(-c3cccc(F)c3)nc12	2.73 µM
N#Cc1cc2c(cc1NC(=O)c1cc(F)cc3[nH]ncc13)CNC2	5.39 µM
O=C(Nc1ccc2c(c1)CNC2)c1cc(Cl)cc2cc[nH]c12	87.9 µM
Cc1cccc(-c2nc3c(C(=O)Nc4ccc5c(c4)CNC5)cc(F)cc3[nH]2)c1	6.16 µM
Cc1ccccc1-c1nc2c(C(=O)Nc3ccc4c(c3)CNC4)cc(F)cc2[nH]1	2.2 µM
O=C(Nc1ccc2c(c1)CNC2)c1ccc2c(C3=CCNCC3)csc2c1	54.4 µM
O=C(Nc1ccc2c(c1)CNC2)c1cc(F)cc2[nH]c(-c3ccccc3F)nc12	3.44 µM

SMILES	IC50
NCc1ccc(-c2csc3cc(C(=O)Nc4ccc5c(c4)CNC5)ccc23)cc1	31.6 µM
NCc1csc2cc(C(=O)Nc3ccc4c(c3)CNC4)ccc12	9.07 µM
Cn1c(=O)[nH]c2c(C(=O)Nc3ccc4c(c3)CNC4)cc(Br)cc21	> 99.5 µM
O=C(Nc1ccc2c(c1)CNC2)c1cc(F)cc2c1CCC2	> 99.5 µM
O=C(Nc1ccc2c(c1)CNC2)c1cccc2c(C3CNC3)n[nH]c12	9.27 µM
O=C(Nc1ccc2c(c1)CNC2)c1cc(Cl)cc(C(F)(F)F)n1	10.4 µM
O=C(Nc1ccc2c(c1)CNC2)c1cc(F)cc2[nH]c(-c3ccc(F)cc3)nc12	2.96 µM
O=C(Nc1ccc2c(c1)CNC2)c1cccc2nc(O)ccc12	> 99.5 µM
COc1cc(-c2cc(NC(=O)c3cc(F)cc4[nH]ncc34)cc3c2CNC3)ccn1	12.9 µM
CC(C)(c1nc2c(C(=O)Nc3ccc4c(c3)CNC4)cc(F)cc2[nH]1)S(C)(=O)=O	13.6 µM
O=C1Cc2cc(C(=O)Nc3ccc4c(c3)CNC4)ccc2N1	7.13 µM and 5.44 µM
NCCc1csc2cc(C(=O)Nc3ccc4c(c3)CNC4)ccc12	> 99.5 µM
O=C(Nc1ccc2c(c1)CNC2)c1cccc2cn[nH]c12	37.3 µM
O=C(Nc1cc2c(cc1Br)CNC2)c1cc(F)cc2[nH]ncc12	21.8 µM
O=C(Nc1ccc2c(c1)CNC2)c1ccc2[nH]ccc2c1	> 99.5 µM
O=C(Nc1cc2c(c(C3=CCS(=O)(=O)CC3)c1)CNC2)c1cc(F)cc2[nH]ncc12	12.8 µM
O=C(Nc1cc2c(c(C3=CCOCC3)c1)CNC2)c1cc(F)cc2[nH]ncc12	8.47 µM
